Experimental data: publication PMC7797697 (Theranostics, 2021)

Tests used:
[1] = test system: MDA-MB-231 cells; assay: High-content epigenetic inhibitor screen, quantification of living cells; assay type: cell-based, human; settings: 72 h
Excerpt: (§1) HeLa, MCF-7 and MDA-MB-231 cell lines were purchased from the American Type Culture Collection. MCF-10A, T-47D, PANC-1, A549, HCT-15, Caco-2, SMMC-7721, SH-SY5Y, HUVEC and PC-3 cell lines were obtained from the Chinese Academy of Medical Sciences. MEF was isolated from pregnant mice at 14‒16 days of pregnancy. Primary breast cancer cells were isolated from breast cancer patients. All media including Dulbecco Modified Eagle Medium (DMEM), RPMI 1640 Medium and DMEM/Nutrient Mixture F-12 were supplemented with 10% fetal bovine serum (FBS), 100 units/mL penicillin, and […] streptomycin (Gibco, Waltham, MA, USA). Cells were cultured in a humidified incubator equilibrated with 5% CO2 at 37 °C. Cells were treated for 24-72 h in adherent conditions with compounds from an epigenetic small molecule inhibitor library (L1200, Topscience, Shanghai, China).
(§2) Statistical analyses of all data were performed using GraphPad Prism (version 8.0, Graph Pad Software Inc., San Diego, CA, USA). All the data were analyzed by Student's t-test or one-way ANOVA. The Z-Score was chosen to evaluate the results and experimental deviation. Quantitative data are presented as the mean ± SD. The asterisk (*) denotes statistically significant difference (P < 0.05). IC50 was calculated using a four-parameter fit with variable slope in GraphPad Prism.
To identify potential anti-tumor inhibitors, we screened an epigenetic small molecule inhibitor library for anti-tumor activity in breast cancer cells. […] The selection strategy mainly comprised three stages, in which different concentrations (high to low) of inhibitors screened with a high-content analysis instrument were identified using cancer cell lines in a 96-well plate format (Figure 1A). For the first step, we treated cells with a high concentration of compounds to exclude compounds ineffective in killing cancer cells. MDA-MB-231 cells, a human breast cancer cell line, were treated with 167 epigenetic compounds (30 μM each) for 48 h, and then analyzed by high-content analysis, where changes in cell morphology relative to the control (dimethyl sulfoxide, DMSO) would indicate modulation of cancer cells by compound treatment. […] At the second step, we treated the cells with the 60 compounds at a median concentration (3 μM) for 72 h to screen for inhibitors that can kill cancer cells with high efficiency.

[2] = test system: HUVEC; assay: CCK8 assay IC50; assay type: cell-based, human; settings: 72 h, normal cells
Method: (§3) Cell viability was then detected using a CCK8 assay (MedChemExpress, USA) according to the manufacturer's instructions.
as §2

[3] = test system: MDA-MB-231; assay: CCK8 assay IC50; assay type: cell-based, human; settings: Homo sapiens; MDA-MB-231, 72 h, CCK8, value of the text
Method: as §3, §2

[4] = test system: Primary breast tumor cells; assay: CCK8 assay IC50; assay type: cell-based, human; settings: Homo sapiens, breast cancer, 72 h
Excerpt: as §1, §3
as §2, with “The asterisk (*) denotes statistically significant difference (P < 0.05).” left out

[5] = test system: non-breast cancer cell lines; assay: CCK8 assay IC50, panel summary; assay type: cell-based; settings: panel of non-breast cancer cell lines, 72 h
Method: as §3, §2

[6] = test system: MDA-MB-231 and primary breast tumor cells; assay: EdU incorporation assay; assay type: cell-based, human; settings: compared to DMSO treatment
Excerpt: After that, DNA proliferation was detected using an EdU assay kit according to the manufacturer's instructions (RiboBio, Guangzhou, China).

[7] = test system: breast cancer cells; assay: Transwell cell invasion assay; assay type: cell-based, human; settings: matrigel transwell, P < 0.05
Method: Transwell chamber filters (BD) were coated with Matrigel diluted (1:10) in serum-free medium. […] After treatment, cells were digested and suspended in serum-free media. Cells (8,000 cells per well) were seeded into the upper chamber of the transwell chambers, and the chambers were transferred into 24-well plates containing 500 μl culture medium per well. After 20 h of incubation, cells in the upper chamber were fixed with 4% formaldehyde, washed with PBS, and stained with crystal violet for half an hour. Images of invasive cells were captured using a light microscope.

[8] = test system: MDA-MB-231 cells; assay: RT-qPCR of marker genes; assay type: cell-based, human
Method: Reverse transcription was performed using the RevertAid First Strand cDNA Synthesis Kit ([…]) according to the manufacturer's instructions. The primers for the detection of target mRNA are shown in Table S2. β-actin was used as an internal reference. The relative expression of target genes was calculated by the 2^-ΔΔCt method.

[9] = test system: MDA-MB-231 cells; assay: Intracellular calcium measurement (Fluo-4-AM); assay type: cell-based, human; settings: 100 nM or 200 nM for 24 h
Method: After treatment, the cells were digested and seeded in 96-well black plates (Corning Costar, Cambridge, MA, USA) and cultured for 20 h. For measurement of [Ca^2+]i, the cells were labeled with Fluo-4-AM in serum-free medium for half an hour at room temperature. After washing with Dulbecco's Phosphate Buffered Saline (D-PBS), cells were overlaid in Hank's balanced salt solution (5.4 mM KCl, 1 mM MgCl2, 20 mM hydroxyethyl piperazineethanesulfonic acid (HEPES), 120 mM NaCl, 10 mM glucose, 0.2 mM Ethylenebis(oxyethylenenitrilo)tetraacetic acid (EGTA)). Continuous fluorescence intensity was detected after thrombin was added as a calcium agonist by an automated sampler. Response over baseline was assessed as a relative measure of [Ca^2+]i.
As previously stated, studies have shown that the Ca^2+ signals can modulate cancer progression by regulating migration, proliferation, cell stress, and apoptosis.

[10] = test system: primary breast cancer cells; assay: Intracellular calcium measurement (Fluo-4-AM); assay type: cell-based, human; settings: thrombin stimulation
[11] = Pathological examination (H&E) of main organs; assay type: in vivo, nude mice; settings: i.v., 50 mg/kg, every other day for four weeks
Method: MDA-MB-231 (5 × 10^6 cells) were inoculated into the left abdominal mammary fat pad of 6-week-old female nude mice, and tumor growth was monitored. […] After four weeks of treatment, all mice were sacrificed according to ethical guidelines. Tumors were excised and analyzed. Tumor volume was measured using a Vernier caliper and calculated according to the following formula: π/6 × length × width^2. All animal handling and procedures were approved by the Capital Medical University Institutional Animal Care. Tumor and adjacent tissues were rapidly fixed in 4% paraformaldehyde (Sigma-Aldrich) for at least 24 h and embedded in paraffin for microscopic examination. From the prepared paraffin blocks, 5-μm thick sections were cut and stained with hematoxylin and eosin (H&E) for light microscopic observation. Sections were processed as per standard protocols using 3,3'-diaminobenzidine (DAB) staining. All human and mouse tissues were collected according to protocols approved by the Ethics Committee of Capital Medical University, and informed consent was obtained from all patients.

IC50 [3]: 0.663 µM
IC50 [4]: 0.876 µM
IC50 [5]: > 1 µM
Compound: CN(C)Cc1c(C(=O)NCCOc2ccc(C(=O)NO)cc2)oc2ccccc12 [PCI-24781]
cell death ([1]; 0.15 μM): ~ 20%
effect on cell survival ([1]; 3 μM): discernible effects on cell survival
IC50 ([2]; Homo sapiens): 4.2 µM
IC50 [2]: 4.17 µM
cell proliferation (EdU incorporation) [6]: decreased proliferation
invasive capacity [7]: significant reduction in the invasive capacity
expression of Ca^2+-related pathway markers (SYT1, SYTL2, SYT7, SYT12, TC2N, MMP1, MMP3, PLCβ3) [8]: downregulated
expression of MMP2, MMP15, and MMP16 [8]: significantly inhibited
expression of epithelial markers (α-catenin, γ-catenin) [8]: significant upregulation
mRNA levels of mesenchymal/NE markers (N-cadherin, vimentin, fibronectin, Syn, ASH1, NCAM1) [8]: either inhibited or unaffected
influx of intracellular calcium ions induced by thrombin, ionomycin, and carbachol [9]: completely inhibited
amplitude of [Ca^2+]i oscillations [10]: significant decrease in the amplitude
histological changes in the main organs (heart, liver, lung, spleen, and kidney) [11]: did not exhibit serious histological changes
